Assay results taken from PMC12042115 (mLife, 2025).

Tested on: wild‐type BCG cells
Assay type: cell-based, M. bovis BCG
Details: protein A0A0H3MG19, BCG_2669 (Rv2642), Arsenical resistance operon repressor; down-regulated; 3 d

## O=C(Oc1ccc(Cl)cc1)c1ccc(N2CCOCC2)c([N+](=O)[O-])c1 [GDI‐5755]
  Mean_Ratio (GDI5755_3d vs DMSO_3d): 0.7
